Reference: ChEMBL document CHEMBL1201862, “PubChem BioAssay data set” (2004)
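Where inhibition never reached the appropriate level, the endpoint shown equals the highest concentration tested. Otherwise, values were interpolated linearly from a five-concentration, 48-hour dose response in 96-well plates. GI50 is the concentration that inhibits growth by half.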 The source made the active and inactive calls. No stated cut-off is given here; in the data, active = GI50 up to about 1.1 µM and inactive = higher.

Tests used:
Assay in all cases: NCI-60 cell line screen, 48 h
[1] = test system: 786-0
[2] = test system: A498
[3] = test system: A549
[4] = test system: ACHN
[5] = test system: BT-549
[6] = test system: CAKI-1
[7] = test system: CCRF-CEM
[8] = test system: COLO 205
[9] = test system: DU-145
[10] = test system: EKVX
[11] = test system: HCC 2998
[12] = test system: HCT-116
[13] = test system: HCT-15
[14] = test system: HOP-62
[15] = test system: K562
[16] = test system: KM12
[17] = test system: LOX IMVI
[18] = test system: M14
[19] = test system: MCF7
[20] = test system: MDA-MB-231
[21] = test system: MDA-MB-435
[22] = test system: MDA-N
[23] = test system: MOLT-4
[24] = test system: Malme-3M
[25] = test system: NCI-H226
[26] = test system: NCI-H23
[27] = test system: NCI-H460
[28] = test system: NCI-H522
[29] = test system: NCI/ADR-RES
[30] = test system: OVCAR-3
[31] = test system: OVCAR-4
[32] = test system: OVCAR-5
[33] = test system: OVCAR-8
[34] = test system: PC-3
[35] = test system: RXF 393
[36] = test system: SF-268
[37] = test system: SF-295
[38] = test system: SF-539
[39] = test system: SK-MEL-28
[40] = test system: SK-MEL-2
[41] = test system: SK-MEL-5
[42] = test system: SK-OV-3
[43] = test system: SN12C
[44] = test system: SNB-19
[45] = test system: SNB-75
[46] = test system: SR
[47] = test system: SW-620
[48] = test system: T47D
[49] = test system: TK-10
[50] = test system: U-251
[51] = test system: UACC-257
[52] = test system: UACC-62
[53] = test system: UO-31
[54] = test system: HT-29
[55] = test system: IGROV-1
[56] = test system: RPMI-8226

In the case of `Cn1nc(/C=C\C(=O)N2CC(CCl)c3c2cc(N)c2ccccc32)cc1/C=C/C(=O)N1CC(CCl)c2c1cc(N)c1ccccc21` (centres undefined), the GI50 [1] is reported as < 10 nM (active), the GI50 [2] is reported as < 10 nM (active) and the GI50 [3] is reported as < 10 nM (active). The GI50 [4] was < 10 nM (active), the GI50 [5] was < 10 nM (active) and the GI50 [6] was < 10 nM (active). The GI50 [7] was < 10 nM (active), the GI50 [8] was < 10 nM (active) and the GI50 [9] was < 10 nM (active). The GI50 [10] was 21.5 nM (active), the GI50 [11] was < 10 nM (active) and the GI50 [12] was < 10 nM (active). For the same molecule, the GI50 [13] was 11.9 nM, the GI50 [14] was < 10 nM (active) and the GI50 [15] was < 10 nM (active). The GI50 [16] was < 10 nM (active), the GI50 [17] was < 10 nM (active) and the GI50 [18] was < 10 nM (active). The GI50 [19] was < 10 nM (active), the GI50 [20] was < 10 nM (active) and the GI50 [21] was < 10 nM (active). The GI50 [22] was < 10 nM (active), the GI50 [23] was < 10 nM (active) and the GI50 [24] was < 10 nM (active). For the same molecule, the GI50 [25] was < 10 nM (active), the GI50 [26] was < 10 nM (active) and the GI50 [27] was < 10 nM (active). For the same molecule, the GI50 [28] was < 10 nM (active), the GI50 [29] was 12.4 nM (active) and the GI50 [30] was < 10 nM (active). For the same molecule, the GI50 [31] was < 10 nM (active), the GI50 [32] was < 10 nM (active) and the GI50 [33] was < 10 nM (active). The GI50 [34] was < 10 nM (active), the GI50 [35] was < 10 nM (active) and the GI50 [36] was < 10 nM (active). The GI50 [37] was < 10 nM (active), the GI50 [38] was < 10 nM (active) and the GI50 [39] was < 10 nM (active). For the same molecule, the GI50 [40] was < 10 nM (active), the GI50 [41] was < 10 nM (active) and the GI50 [42] was < 10 nM (active). For the same molecule, the GI50 [43] was < 10 nM (active), the GI50 [44] was < 10 nM (active) and the GI50 [45] was < 10 nM (active). The GI50 [46] was < 10 nM (active), the GI50 [47] was < 10 nM (active) and the GI50 [48] was < 10 nM (active). The GI50 [49] was < 10 nM (active), the GI50 [50] was < 10 nM (active) and the GI50 [51] was 22.5 nM (active). For the same molecule, the GI50 [52] was < 10 nM (active) and the GI50 [53] was < 10 nM (active).

With `Cc1cccc(NC(Nc2cccc(C)c2)=C(C(Cl)=C(Cl)Cl)[N+](=O)[O-])c1` the GI50 [1] was 14700 nM (inactive), the GI50 [2] was 36700 nM (inactive) and the GI50 [3] was 22000 nM (inactive). The GI50 [4] was 15700 nM (inactive), the GI50 [5] was 11600 nM (inactive) and the GI50 [6] was 14700 nM (inactive). The GI50 [7] was 63500 nM (inactive), the GI50 [8] was 12600 nM (inactive) and the GI50 [9] was 18700 nM (inactive). For the same molecule, the GI50 [10] was 18100 nM (inactive), the GI50 [11] was 22800 nM (inactive) and the GI50 [12] was 5310 nM (inactive). For the same molecule, the GI50 [13] was 13100 nM, the GI50 [14] was 16700 nM (inactive) and the GI50 [54] was 15300 nM (inactive). The GI50 [55] was 2280 nM (inactive), the GI50 [15] was 50800 nM (inactive) and the GI50 [16] was 19500 nM (inactive). For the same molecule, the GI50 [17] was 8990 nM (inactive), the GI50 [18] was 16100 nM (inactive) and the GI50 [19] was 22300 nM (inactive). The GI50 [20] was 3380 nM (inactive), the GI50 [21] was 8870 nM (inactive) and the GI50 [22] was 7450 nM (inactive). The GI50 [23] was 2170 nM (inactive), the GI50 [24] was 14400 nM (inactive) and the GI50 [25] was 3350 nM (inactive). The GI50 [26] was 9120 nM (inactive), the GI50 [27] was 14200 nM (inactive) and the GI50 [28] was 6520 nM (inactive). For the same molecule, the GI50 [29] was 14000 nM (inactive), the GI50 [30] was 9310 nM (inactive) and the GI50 [31] was 22800 nM (inactive). The GI50 [32] was 19600 nM (inactive), the GI50 [33] was 12300 nM (inactive) and the GI50 [34] was 19900 nM (inactive). The GI50 [56] was 8110 nM (inactive), the GI50 [35] was 3940 nM (inactive) and the GI50 [36] was 13600 nM (inactive). The GI50 [37] was 14000 nM (inactive), the GI50 [38] was 10100 nM (inactive) and the GI50 [39] was 17300 nM (inactive). The GI50 [40] was 16400 nM (inactive), the GI50 [41] was 5980 nM (inactive) and the GI50 [42] was 22300 nM (inactive). The GI50 [43] was 7590 nM (inactive), the GI50 [44] was 25800 nM (inactive) and the GI50 [45] was 25200 nM (inactive). The GI50 [46] was 3810 nM (inactive), the GI50 [47] was 14800 nM (inactive) and the GI50 [48] was 11900 nM (inactive). For the same molecule, the GI50 [49] was 12400 nM (inactive), the GI50 [50] was 12600 nM (inactive) and the GI50 [51] was 19300 nM (inactive). The GI50 [52] was 13400 nM (inactive) and the GI50 [53] was 11800 nM (inactive).
